Reference: patent publication US8637523B2, “Compounds for the reduction of beta-amyloid production” (Bristol-Myers Squibb Company, priority 2010, dated 2014)
Where two headings read alike, the source gives them in different places.

System: Aβ42
Assay: Cellular assay for inhibition of Aβ1-42 production (H4 APP751 SWE clone 8.20)
Assay type: cell-based
Details: H4 APP751 SWE clone 8.20 cells, 19 h incubation
Method: Cellular Assays for Inhibition of Aβ1-40 and Aβ1-42 Production
H4 cells stably transfected with APP751 containing the Swedish mutation (H4 APP751 SWE clone 8.20, developed at BMS) were maintained in log phase through twice weekly passage at a 1:20 split. […] Following incubation for 19 h in 5% CO2 at 37° C., plates were briefly centrifuged (1000 rpm, 5 min). A 10 μl aliquot from each well was transferred to a second assay plate (Costar 3709) for Aβ40 measurements. Antibody cocktails were freshly prepared by dilution into 40 mM Tris-HCl (pH 7.4) with 0.2% BSA and added to assay plates. For Aβ42 measurements, antibodies specific for the Aβ42 neoepitope (565, developed at BMS; conjugated to the Wallac reagent (Perkin Elmer)) and the N-terminal sequence of Aβ peptide (26D6, developed at SIBIA; conjugated to APC (Perkin Elmer)) were mixed and 20 μl of the mixture was added to each well of the incubated cell plate yielding a final concentration of 0.8 ng/well 565 and 75 ng/well 26D6. For the Aβ40 measurements, antibodies specific for the Aβ40 neoepitope (TSD, developed at BMS; conjugated to the Wallac reagent (Perkin Elmer)) and 26D6 as described above were mixed and 20 μl of the mixture was added to the 10 μl aliquots which had been removed previously from the cell plate yielding a final concentration of 1.6 ng/well TSD and 17.5 ng/well 26D6. Assay plates containing antibodies were sealed with aluminum foil and incubated overnight at 4° C. Signal was determined using a Viewlux counter (Perkin Elmer) and IC50 values determined using curve fitting in CurveMaster (Excel Fit based).

[1] = unit inferred, read-out: Activity Rating (Aβ42 cellular IC50), numeric value
[2] = read-out: Activity Rating (Aβ42 cellular IC50), class symbol
[3] = 19 h, read-out: Activity Rating (Aβ42 cellular IC50), class symbol
[4] = 19 h, unit inferred, read-out: Activity Rating (Aβ42 cellular IC50), numeric value

Cc1ncnn1-c1ccc2cc1OCC=CCNc1nc(nc3c1CCC3c1ccccc1)N2 (stereo not shown) [Example 43B, (11E)-7-(5-methyl-1H-1,2,4-triazol-1-yl)-18-phenyl-10,13,14,16,17,18-hexahydro-15,2-(azeno)-8,4-(metheno)cyclopenta[h][1,6,10,12]oxatriazacycloheptadecine]
IC50 [1]: 53 nM

CN1CCNc2nc(nc3c2CCC3c2ccc(F)cc2)Nc2ccc(C#N)c(c2)OCC1 (single isomer, unassigned) [Example 27A, 7-cyano-19-(4-fluorophenyl)-12-methyl-11,12,13,14,15,17,18,19-octahydro-10H-16,2-(azeno)-8,4-(metheno)cyclopenta[i][1,4,7,11,13]oxatetraazacyclooctadecine]
IC50 [2]: 10 to 100 nM

(11E)-7-cyano-18-(2,4-difluorophenyl)-10,13,14,16,17,18-hexahydro-15,2-(azeno)-8,4-(metheno)cyclopenta[h][1,6,10,12]oxatriazacycloheptadecine [Example 25B]
IC50 [1]: 53 nM

CN1CCCOc2cc(ccc2-n2cnc(Cl)c2)Nc2nc3c(c1n2)CCC3c1ccccc1 (stereo not shown) [Example 10A, 7-(4-chloro-1H-imidazol-1-yl)-13-methyl-17-phenyl-11,12,13,15,16,17-hexahydro-10H-14,2-(azeno)-8,4-(metheno)cyclopenta[g][1,5,9,11]oxatriazacyclohexadecine]
IC50 [3]: 10 to 100 nM

Cc1ncnn1-c1ccc2cc1OCC=CCNc1nc(nc3c1CCC3c1ccccc1)N2 (stereo not shown) [Example 43A, (11E)-7-(5-methyl-1H-1,2,4-triazol-1-yl)-18-phenyl-10,13,14,16,17,18-hexahydro-15,2-(azeno)-8,4-(metheno)cyclopenta[h][1,6,10,12]oxatriazacycloheptadecine]
IC50 [2]: < 10 nM

N#Cc1ccc2cc1OC/C=C/CCc1nc(nc3c1CCC3c1ccccc1)N2 (stereo not shown) [Example 37B, (11E)-7-cyano-18-phenyl-10,13,14,16,17,18-hexahydro-15,2-(azeno)-8,4-(metheno)cyclopenta[h][1,10,12]oxadiazacycloheptadecine]
IC50 [2]: 10 to 100 nM

CC1(c2ccc(F)cc2)CCc2c3nc(nc21)Nc1ccc(C#N)c(c1)OC/C=C\CN3 (stereo not shown) [Example 68, (11E)-7-cyano-18-(4-fluorophenyl)-18-methyl-10,13,14,16,17,18-hexahydro-15,2-(azeno)-8,4-(metheno)cyclopenta[h][1,6,10,12]oxatriazacycloheptadecine]
IC50 [1]: 160 nM

CN1CC=CCOc2cc(ccc2C#N)Nc2nc3c(c1n2)CCC3c1ccccc1 (stereo not shown) [Example 30B, (11E)-7-cyano-14-methyl-18-phenyl-10,13,14,16,17,18-hexahydro-15,2-(azeno)-8,4-(metheno)cyclopenta[h][1,6,10,12]oxatriazacycloheptadecine]
IC50 [2]: 10 to 100 nM

Cc1ncn(-c2ccc3cc2OCC=CCCc2nc(nc4c2CCC4c2ccccc2)N3)n1 (stereo not shown) [Example 59A, (11E)-7-(3-methyl-1H-1,2,4-triazol-1-yl)-18-phenyl-10,13,14,16,17,18-hexahydro-15,2-(azeno)-8,4-(metheno)cyclopenta[h][1,10,12]oxadiazacycloheptadecine]
IC50 [2]: < 10 nM

Cc1ncn(-c2ccc3cc2OCCCCNc2nc(nc4c2CCC4c2ccccc2)N3)n1 (stereo not shown) [Example 49B, 7-(3-methyl-1H-1,2,4-triazol-1-yl)-18-phenyl-10,11,12,13,14,16,17,18-octahydro-15,2-(azeno)-8,4-(metheno)cyclopenta[h][1,6,10,12]oxatriazacycloheptadecine]
IC50 [3]: 10 to 100 nM

CC1C/C=C\COc2cc(ccc2-n2cnc(Cl)c2)Nc2nc(c3c(n2)C(c2ccccc2)CC3)N1 (stereo not shown) [Example 6A, (11Z)-7-(4-chloro-1H-imidazol-1-yl)-14-methyl-19-phenyl-3,10,13,14,15,17,18,19-octahydro-2,16-(azeno)-8,4-(metheno)cyclopenta[j][1,7,9,13]oxatriazacyclooctadecine]
IC50 [4]: 3.6 nM

Cc1ncn(-c2ccc3cc2OCC=CCNc2nc(nc4c2CCC4c2ccccc2)N3)n1 (stereo not shown) [Example 39B, (11Z)-7-(3-methyl-1H-1,2,4-triazol-1-yl)-18-phenyl-10,13,14,16,17,18-hexahydro-15,2-(azeno)-8,4-(metheno)cyclopenta[h][1,6,10,12]oxatriazacycloheptadecine]
IC50 [2]: 10 to 100 nM

Cc1ncn(-c2ccc3cc2OCCCCNc2nc(nc4c2CCC4c2ccc(F)cc2F)N3)n1 (stereo not shown) [Example 64A, 18-(2,4-difluorophenyl)-7-(3-methyl-1H-1,2,4-triazol-1-yl)-10,11,12,13,14,16,17,18-octahydro-15,2-(azeno)-8,4-(metheno)cyclopenta[h][1,6,10,12]oxatriazacycloheptadecine]
IC50 [4]: 5.3 nM

(11Z)-7-(4-chloro-1H-imidazol-1-yl)-18-phenyl-10,13,14,16,17,18-hexahydro-15,2-(azeno)-8,4-(metheno)cyclopenta[h][1,6,10,12]oxatriazacycloheptadecine [Example 1A]
IC50 [1]: 3.9 nM

CN1CCCOc2cc(ccc2C#N)Nc2nc3c(c1n2)CCC3c1ccc(F)cc1F (stereo not shown) [Example 35B, 7-cyano-17-(2,4-difluorophenyl)-13-methyl-11,12,13,15,16,17-hexahydro-10H-14,2-(azeno)-8,4-(metheno)cyclopenta[g][1,5,9,11]oxatriazacyclohexadecine]
IC50 [4]: 140 nM

Cc1ncn(-c2ccc3cc2OCCCCN(C)c2nc(nc4c2CCC4c2ccccc2)N3)n1 (stereo not shown) [Example 50A, 14-methyl-7-(3-methyl-1H-1,2,4-triazol-1-yl)-18-phenyl-10,11,12,13,14,16,17,18-octahydro-15,2-(azeno)-8,4-(metheno)cyclopenta[h][1,6,10,12]oxatriazacycloheptadecine]
IC50 [2]: < 10 nM

CN1C/C=C\COc2cc(ccc2C#N)Nc2nc3c(c1n2)CCC3c1ccc(F)cc1F (stereo not shown) [Example 28B, (11Z)-7-cyano-18-(2,4-difluorophenyl)-14-methyl-10,13,14,16,17,18-hexahydro-15,2-(azeno)-8,4-(metheno)cyclopenta[h][1,6,10,12]oxatriazacycloheptadecine]
IC50 [3]: 100 to 1000 nM

Cc1ncnn1-c1ccc2cc1OCCCCNc1nc(nc3c1CCC3c1ccccc1)N2 (stereo not shown) [Example 47A, 7-(5-methyl-1H-1,2,4-triazol-1-yl)-18-phenyl-10,11,12,13,14,16,17,18-octahydro-15,2-(azeno)-8,4-(metheno)cyclopenta[h][1,6,10,12]oxatriazacycloheptadecine]
IC50 [4]: 5.6 nM

CN1CCCCOc2cc(ccc2C#N)Nc2nc3c(c1n2)CCC3c1ccccc1 (single isomer, unassigned) [Example 34B, 7-cyano-14-methyl-18-phenyl-10,11,12,13,14,16,17,18-octahydro-15,2-(azeno)-8,4-(metheno)cyclopenta[h][1,6,10,12]oxatriazacycloheptadecine]
IC50 [1]: 160 nM

(11E)-7-(3-methyl-1H-1,2,4-triazol-1-yl)-18-phenyl-10,13,14,16,17,18-hexahydro-15,2-(azeno)-8,4-(metheno)cyclopenta[h][1,6,10,12]oxatriazacycloheptadecine [Example 40B]
IC50 [1]: 25 nM

(11E)-7-(4-chloro-1H-imidazol-1-yl)-18-phenyl-10,13,14,16,17,18-hexahydro-15,2-(azeno)-8,4-(metheno)cyclopenta[h][1,6,10,12]oxatriazacycloheptadecine [Example 2A]
IC50 [2]: 10 to 100 nM

CN1CCCCOc2cc(ccc2-n2cnc(Cl)c2)Nc2nc3c(c1n2)CCC3c1ccc(F)cc1F (stereo not shown) [Example 19A, 7-(4-chloro-1H-imidazol-1-yl)-18-(2,4-difluorophenyl)-14-methyl-10,11,12,13,14,16,17,18-octahydro-15,2-(azeno)-8,4-(metheno)cyclopenta[h][1,6,10,12]oxatriazacycloheptadecine]
IC50 [3]: < 10 nM

CN1CCCCOc2cc(ccc2-n2cnc(Cl)c2)Nc2nc3c(c1n2)CCC3c1ccccc1 (stereo not shown) [Example 13A, 7-(4-chloro-1H-imidazol-1-yl)-14-methyl-18-phenyl-10,11,12,13,14,16,17,18-octahydro-15,2-(azeno)-8,4-(metheno)cyclopenta[h][1,6,10,12]oxatriazacycloheptadecine]
IC50 [3]: < 10 nM

Cc1ncnn1-c1ccc2cc1OCCCCN(C)c1nc(nc3c1CCC3c1ccccc1)N2 (stereo not shown) [Example 48B, 14-methyl-7-(5-methyl-1H-1,2,4-triazol-1-yl)-18-phenyl-10,11,12,13,14,16,17,18-octahydro-15,2-(azeno)-8,4-(metheno)cyclopenta[h][1,6,10,12]oxatriazacycloheptadecine]
IC50 [4]: 88 nM

N#Cc1ccc2cc1OCCNCCNc1nc(nc3c1CCC3c1ccc(F)cc1)N2 (single isomer, unassigned) [Example 26B, 7-cyano-19-(4-fluorophenyl)-11,12,13,14,15,17,18,19-octahydro-10H-16,2-(azeno)-8,4-(metheno)cyclopenta[i][1,4,7,11,13]oxatetraazacyclooctadecine]
IC50 [2]: 100 to 1000 nM
